# Where a name gives a salt, the structure may show the parent alone. Read-outs that look alike come from different tables or passages of the source.
# Tests used:
# [1] = Solubility of lyophilized CHG in vehicles, Lyophilization Method; settings: for Apparent solubility 2 minutes / Apparent solubility 2 hours 50° C. / Apparent solubility >24 hours / Apparent solubility after cooling / Apparent solubility immediate: 0.2 wt. % lyophilized CHG; for Apparent solubility 2 minutes: after 2 minutes; for Apparent solubility 2 hours 50° C.: after 2 hours in 50° C. oven; for Apparent solubility >24 hours: after 24 hours; for Apparent solubility after cooling: after cooling to room temperature; for Apparent solubility immediate: observed immediately after mixing
# Procedure: The Lyophilization Method. Lyophilized CHG was prepared by freeze-drying the aqueous CHG solution (20 wt. % solution in water, obtained from Xttrium Laboratories Inc., Chicago, Ill.).
# For lower viscosity vehicles, a 5 ml sample of the non-aqueous vehicle of interest was measured into a glass vial. For higher viscosity vehicles that were difficult to transfer by volume, a 5 gm sample was weighed into the vial. Next, 0.01 g of lyophilized CHG was added to the vial. The sample was capped and mixed by shaking for 30 seconds. The sample was immediately observed and then observed again after 2 minutes and again after 24 hours. After 24 hours, the sample was placed in a 50° C. oven for 2 hours and then removed and immediately observed. These samples were allowed to cool to room temperature and a final observation was made.
# CHG solutions. The solutions containing CHG were either a 20 wt. % aqueous solution of CHG or a 10-20% w/w solution of CHG in a non-aqueous vehicle. The non-aqueous solutions were prepared by freeze drying the aqueous CHG solution to produce lyophilized CHG. Finely divided, lyophilized CHG was then solubilized in a non-aqueous vehicle at room temperature with continuous stirring for eight hours.
# [2] = Solubility Screening of CHG in vehicles, Vacuum Method
# Procedure: Solubility Screening. Screening tests were conducted to determine the solubility of CHG in a wide variety of vehicles. Tests were conducted using the Vacuum Method and the Lyophilizing Method.
# Vacuum Method. […] The flask was put in a 60° C. oil bath and stirred with a magnetic stir bar. […] In those cases, after nearly all the water was removed, additional vehicle was added to bring the final weight to 50 grams. The resulting concentration of CHG and residual water were determined. Also, the final state of the solution was qualitatively evaluated to determine if the mixture was transparent and apparently homogenous, or clearly inhomogeneous.
# [3] = CHG 5 wt. % in vehicle, 23-50° C., Vacuum Method
# [4] = CHG 10 wt. % in vehicle, 23-50° C., Vacuum Method
# [5] = CHG 20 wt. % in vehicle, 23-50° C., Vacuum Method
# [6] = summary of Tables 1a-3b, Vacuum Method
molecule,measurement,setting,value
CCOC(=O)CC(CC(=O)OCC)(OC(C)=O)C(=O)OCC [Acetyltriethyl citrate],Apparent solubility 2 minutes,[1],no
same,Apparent solubility 2 hours 50° C.,[1],soluble
same,Apparent solubility >24 hours,[1],partial
same,Apparent solubility after cooling,[1],partial
same,Apparent solubility immediate,[1],no
"OCCCCO [1,4-butanediol]",CHG solubility in vehicle (trend),[2],provides solubility
same,Final State,[2],Homogeneous
OCCOCCOCCO [Triethylene glycol],Final State,[2],Homogeneous
CCOC(=O)C(=O)OCC [Oxalic Acid Diethyl Ester],Final State,[2],Inhomogeneous
"CC(C)(O)CCO [3-methyl-1,3-butanediol]",Final State,"[2]; CHG 1 wt. % in vehicle, 23° C., Vacuum Method",Inhomogeneous
same,Final State,"[2]; CHG 1 wt. % in vehicle, 50° C., Vacuum Method",Homogeneous
same,Final State,"[2]; CHG 2.5 wt. % in vehicle, 23° C., Vacuum Method",Inhomogeneous
same,Final State,"[2]; CHG 2.5 wt. % in vehicle, 50° C., Vacuum Method",Homogeneous
same,Final State,[2]; [3],Inhomogeneous
same,Final State,[2]; [4],Inhomogeneous
CCCCCCCC/C=C\CCCCCCCC(=O)OCC(O)CO (stereo not drawn) [Glyceryl monooleate],Final State,[2]; [5],Homogeneous
CCCCCCCCCCCC(=O)OCC(O)CO (stereo not drawn) [Glyceryl monolaurate],Final State,"[2]; CHG 20 wt. % in vehicle, 75° C., Vacuum Method",Homogeneous
Glycereth-18 Ethylhexanoate,Apparent solubility 2 minutes,[1],no
same,Apparent solubility 2 hours 50° C.,[1],soluble
same,Apparent solubility >24 hours,[1],soluble
same,Apparent solubility after cooling,[1],soluble
same,Apparent solubility immediate,[1],no
"CCCCCCC(O)CO (stereo not drawn) [1,2-octanediol]",Final State,[2]; [4],Homogeneous
same,Final State,[2]; [5],Homogeneous
"CC(C)(O)C(C)(C)O [2,3-dimethyl-2,3-butanediol]",CHG solubility in vehicle (trend),[2],do not always impart solubility
same,Final State,[2],Inhomogeneous
CCOC(=O)[C@H](O)[C@@H](O)C(=O)OCC [Diethyl-L-Tartrate],Final State,[2],Homogeneous
CC(C)CCCCCCCCCCCCCCC(=O)OCC(O)CO (stereo not drawn) [Glyceryl monoisostearate],Final State,"[2]; CHG 10 wt. % in vehicle, 23-60° C., Vacuum Method",Homogeneous
same,Final State,"[2]; CHG 16 wt. % in vehicle, 23-60° C., Vacuum Method",Homogeneous
same,Final State,"[2]; CHG 20 wt. % in vehicle, 60° C., Vacuum Method",Homogeneous
"CC(C)CCCCCCCCCCCCCCC(=O)OCC(O)CO (stereo not drawn) [GMIS-1, glycerol monoisostearate]",solubility of CHG in vehicle (dissolution experiments using lyophilized CHG),[1],limited
Sorbeth-6,Final State,[2],Homogeneous
"OCCCCCO [1,5-pentanediol]",CHG solubility in vehicle (trend),[2],too widely separated to impart good solubility
same,Final State,[2],Inhomogeneous
CC(O)COC(C)COC(C)CO (stereo not drawn) [Tripropylene glycol],Final State,[2],Inhomogeneous
Decaglyceryl tristearate,Final State,[2],Homogeneous
CC(C)OC(=O)[C@@H](O)[C@H](O)C(=O)OC(C)C [Diisopropyl-D-Tartrate],Final State,[2],Inhomogeneous
CCOC(=O)[C@@H](O)[C@H](O)C(=O)OCC [Diethyl-D-Tartrate],Final State,[2]; [4],Homogeneous
PEG-20 glyceryl Triisostearate,Apparent solubility 2 minutes,[1],partial
same,Apparent solubility 2 hours 50° C.,[1],partial
same,Apparent solubility >24 hours,[1],partial
same,Apparent solubility after cooling,[1],partial
same,Apparent solubility immediate,[1],no
"CC(O)C(C)O (stereo not drawn) [2,3-butanediol]",Final State,[2],Homogeneous
COCCOCCOC [Diethyleneglycol Dimethyl Ether],Final State,[2],Inhomogeneous
CCOCCOCCO [Diethyleneglycol monoethyl ether],Final State,"[2]; CHG 2.5 wt. % in vehicle, 23-50° C., Vacuum Method",Homogeneous
same,Final State,[2]; [3],Inhomogeneous
same,Final State,[2]; [4],Inhomogeneous
"CC(O)CO (stereo not drawn) [1,2-propanediol]",Final State,[2]; [4],Homogeneous
Triglyceryl diisostearate,Final State,[2],Inhomogeneous
"OCCCCC(O)CO (stereo not drawn) [1,2,6-trihydroxyhexane]",Final State,[2]; [4],Homogeneous
"OCC1(O)COC(O)(CO)CO1 (stereo not drawn) [1,3-dihydroxyacetone dimer]",Final State,[2]; [4],Homogeneous
Diisostearyl dimerate,Apparent solubility 2 minutes,[1],no
same,Apparent solubility 2 hours 50° C.,[1],soluble
same,Apparent solubility >24 hours,[1],no
same,Apparent solubility after cooling,[1],no
same,Apparent solubility immediate,[1],no
"CCCCCCCCO [Example 1-octanol, 1-octanol]",Final State,[2]; [4],Inhomogeneous
"OC1CCCC(O)C1 (stereo not drawn) [1,3-cyclohexanediol]",Final State,"[2]; CHG 6 wt. % in vehicle, 23° C., Vacuum Method",Inhomogeneous
same,Final State,"[2]; CHG 6 wt. % in vehicle, 50° C., Vacuum Method",Homogeneous
same,Final State,"[2]; CHG 10 wt. % in vehicle, 23° C., Vacuum Method",Inhomogeneous
same,Final State,"[2]; CHG 10 wt. % in vehicle, 50° C., Vacuum Method",Homogeneous
"OC1CCC(O)CC1 (stereo not drawn) [1,4-cyclohexanediol]",Final State,[2]; [4],Inhomogeneous
same,CHG solubility in vehicle (trend),[2]; [6],do not provide good solubility
CCCCOC(=O)[C@H](O)[C@@H](O)C(=O)OCCCC [Dibutyl-L-Tartrate],Final State,[2],Homogeneous
CCCCCCCC(=O)OCC(O)CO (stereo not drawn) [Glyceryl monocaprylate],Final State,[2],Homogeneous
CC(C)CCCCCCCCCCCCCCC(=O)OCC(COC(=O)CCCCCCCCCCCCCCC(C)C)(COC(=O)CCCCCCCCCCCCCCC(C)C)COC(=O)CCCCCCCCCCCCCCC(C)C [Pentaerythritol tetraisostearate],Apparent solubility 2 minutes,[1],partial
same,Apparent solubility 2 hours 50° C.,[1],partial
same,Apparent solubility >24 hours,[1],partial
same,Apparent solubility after cooling,[1],partial
same,Apparent solubility immediate,[1],partial
CC(C)CCCCCCCCCCCCCCCOC(=O)CCCCCCCCCCCCCCC(C)C [Isostearyl isostearate],Apparent solubility 2 minutes,[1],no
same,Apparent solubility 2 hours 50° C.,[1],partial
same,Apparent solubility >24 hours,[1],no
same,Apparent solubility after cooling,[1],partial
same,Apparent solubility immediate,[1],no
Polyglycerol-3 Diisostearate,Apparent solubility 2 minutes,[1],no
same,Apparent solubility 2 hours 50° C.,[1],soluble
same,Apparent solubility >24 hours,[1],soluble
same,Apparent solubility after cooling,[1],partial
same,Apparent solubility immediate,[1],no
CCCCOCCOCCO [Diethyleneglycol Monobutyl Ether],Final State,[2],Inhomogeneous
Dimer Diol,Final State,[2],Inhomogeneous
CCCCC(CC)COCC(O)CO (stereo not drawn) [Ethylhexyl glycerin],Final State,[2],Homogeneous
CC(C)OC(=O)[C@H](O)[C@@H](O)C(=O)OC(C)C [Diisopropyl-L-Tartrate],Final State,[2]; [4],Inhomogeneous
"CC(C)CCCCCCCCCCCCCCC(=O)OCC(O)CO (stereo not drawn) [GMIS-2, glycerol monoisostearate]",solubility of CHG in vehicle (dissolution experiments using lyophilized CHG),[1],good solvent for CHG
PPG-5 Ceteth-20,Final State,[2],Inhomogeneous
same,Apparent solubility 2 minutes,[1],no
same,Apparent solubility 2 hours 50° C.,[1],soluble
same,Apparent solubility >24 hours,[1],partial
same,Apparent solubility after cooling,[1],soluble
same,Apparent solubility immediate,[1],no
Octyldodeceth-10,Apparent solubility 2 minutes,[1],partial
same,Apparent solubility 2 hours 50° C.,[1],partial
same,Apparent solubility >24 hours,[1],partial
same,Apparent solubility after cooling,[1],partial
same,Apparent solubility immediate,[1],no
"OCCCCCCCCO [1,8-octanediol]",Final State,[2]; [4],Inhomogeneous
same,CHG solubility in vehicle (trend),[2]; [6],too widely separated to impart good solubility
OCC(O)CO [Glycerol],Final State,[2],Homogeneous
sorbitan trioleate,solubility of CHG in vehicle (dissolution experiments using lyophilized CHG),[1],limited
Oleth-2,Apparent solubility 2 minutes,[1],no
same,Apparent solubility 2 hours 50° C.,[1],partial
same,Apparent solubility >24 hours,[1],no
same,Apparent solubility after cooling,[1],partial
same,Apparent solubility immediate,[1],no
"CC(O)CCC(C)O (stereo not drawn) [2,5-hexanediol]",Final State,[2]; [4],Inhomogeneous
same,CHG solubility in vehicle (trend),[2]; [6],do not provide good solubility
CCCCCCCCCCCCCCCCCC(=O)OCC(O)CO (stereo not drawn) [Glyceryl monostearate],Final State,"[2]; CHG 10 wt. % in vehicle, 80° C., Vacuum Method",Homogeneous
Polyglycerol-2-Triisostearate,Final State,[2],Inhomogeneous
Decaglyceryl pentaoleate,Final State,[2],Inhomogeneous
"CCCC(O)CO (stereo not drawn) [1,2-pentanediol]",Final State,"[2]; CHG 50 wt. % in vehicle, 23-50° C., Vacuum Method",Homogeneous
COCCOCCO [Diethyleneglycol monomethyl ether],Final State,[2]; [4],Homogeneous
Polyethyleneglycol Dimethyl Ether,Final State,[2],Inhomogeneous
